The source of these data is paper PMC11477621, “Design, Synthesis, and Biological Evaluation of HDAC Inhibitors Containing Natural Product-Inspired N-Linked 2-Acetylpyrrole Cap” (Molecules, 2024).

Data set [1] concerns HCT-116 (human colon cancer cell line). Description: CCK8 cell viability assay, HCT-116. Type of data set: cell-based. To be noted: 72 h, read-out: Proliferation inhibition IC50 ± SD, HCT-116. The protocol:
(§1) The CCK8 (#AC11L054, Life ilab, Shanghai, China) method was used to detect the cells’ proliferation. Cells were seeded into a 96-well culture plate at an appropriate density. […] IC50 values were estimated using the four-parameter method. Each set of experiments was repeated independently three times with three replicate wells per concentration each time.
For orientation: Formazan colour is commonly taken as a measure of viable cells.

Data set [2] concerns HL-60 (human leukemia cell line). Description: CCK8 cell viability assay, HL-60. Type of data set: cell-based. To be noted: 72 h, read-out: Proliferation inhibition IC50 ± SD, HL-60. The procedure:
as §1

Data set [3] concerns RPMI-8226 (human myeloma cell line). Description: CCK8 cell viability assay, RPMI-8226. Type of data set: cell-based. To be noted: 72 h, read-out: Proliferation inhibition IC50 ± SD, RPMI-8226. The protocol: as §1
Data set [4] concerns Ac-tubulin in RPMI-8226 cells. Description: Western blot of Ac-tubulin. Type of data set: cell-based, human. Conditions: 24 h; for Ac-α-tubulin protein expression: tested concentrations. The protocol: (§2) RPMI-8226 cells were seeded in six-well plates and treated with compounds for 24 h. Cells were lysed with 1× SDS loading buffer (50 mM Tris pH 6.8, 100 mM DTT, 2% SDS, 0.1% bromophenol blue, 10% glycerol), and then centrifuged at 12,000 rpm for 5 min at 4 °C. Cell extracts were probed with antibodies Ac-Tubulin (#5335T, CST, Kansas City, MO, USA), α-Tubulin (#2144S, CST, Kansas City, MO, USA), AcH3 (#ab39139, active motif, Carlsbad, CA, USA), Histone H3 (#17168-1-AP, Proteintech, Chicago, IL, USA), GAPDH (#60004-1-1g, Proteintech, Chicago, IL, USA), Goat Anti-Mouse IgG, H&L Chain Specific Peroxidase Conjugate (#401215, Calbiochem, Darmstadt, Germany), Goat Anti-Rabbit IgG, or H&L Chain Specific Peroxidase Conjugate (#401353, Calbiochem, Germany), then detected using Bio-RAD power pal Basic (#041BR66615, BioRad Laboratories, Hercules, CA, USA), Bio-RAD Mini-PROTEAN Tetrade System (#IEC/EN 61010-1, BioRad Laboratories, Hercules, CA, USA), or Bio-RAD Chemi Touch Imagin (BioRad Laboratories, Hercules, CA, USA).
For orientation: In western blotting, separated proteins are transferred to a membrane and probed.

In data set [5] the target is T1, HDAC1 (Homo sapiens, UniProt Q13547).
T1 construct: purchased BPS #50001
Description: HDAC inhibition assay (HTRF), HDAC1.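 Also: HTRF detection with streptavidin-XL665 plus Eu(K)-labelled anti-H3K9me0 antibody, two independent runs with duplicate wells per concentration.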 The data set is classed as biochemical. To be noted: read-out: IC50 ± SD, HDAC1. A general note: In TR-FRET formats the signal depends on donor and acceptor labels being close together.
Description: (§3) Then, SA-XL665 (#610SAXLG, Cisbio, Bedford, MA, USA) and anti-H3K9me0-Eu(K) (#61KB0KAD, Cisbio, USA) were added. […] The IC50 value of the compounds was calculated using GraphPad 7.0 software. Each set of experiments was independently repeated twice, with two replicate wells per concentration each time.

The target of data set [6] is T2, HDAC6 (Homo sapiens, UniProt Q9UBN7).
T2 construct: purchased BPS #50006
T2 sequence (Q9UBN7 1-1215): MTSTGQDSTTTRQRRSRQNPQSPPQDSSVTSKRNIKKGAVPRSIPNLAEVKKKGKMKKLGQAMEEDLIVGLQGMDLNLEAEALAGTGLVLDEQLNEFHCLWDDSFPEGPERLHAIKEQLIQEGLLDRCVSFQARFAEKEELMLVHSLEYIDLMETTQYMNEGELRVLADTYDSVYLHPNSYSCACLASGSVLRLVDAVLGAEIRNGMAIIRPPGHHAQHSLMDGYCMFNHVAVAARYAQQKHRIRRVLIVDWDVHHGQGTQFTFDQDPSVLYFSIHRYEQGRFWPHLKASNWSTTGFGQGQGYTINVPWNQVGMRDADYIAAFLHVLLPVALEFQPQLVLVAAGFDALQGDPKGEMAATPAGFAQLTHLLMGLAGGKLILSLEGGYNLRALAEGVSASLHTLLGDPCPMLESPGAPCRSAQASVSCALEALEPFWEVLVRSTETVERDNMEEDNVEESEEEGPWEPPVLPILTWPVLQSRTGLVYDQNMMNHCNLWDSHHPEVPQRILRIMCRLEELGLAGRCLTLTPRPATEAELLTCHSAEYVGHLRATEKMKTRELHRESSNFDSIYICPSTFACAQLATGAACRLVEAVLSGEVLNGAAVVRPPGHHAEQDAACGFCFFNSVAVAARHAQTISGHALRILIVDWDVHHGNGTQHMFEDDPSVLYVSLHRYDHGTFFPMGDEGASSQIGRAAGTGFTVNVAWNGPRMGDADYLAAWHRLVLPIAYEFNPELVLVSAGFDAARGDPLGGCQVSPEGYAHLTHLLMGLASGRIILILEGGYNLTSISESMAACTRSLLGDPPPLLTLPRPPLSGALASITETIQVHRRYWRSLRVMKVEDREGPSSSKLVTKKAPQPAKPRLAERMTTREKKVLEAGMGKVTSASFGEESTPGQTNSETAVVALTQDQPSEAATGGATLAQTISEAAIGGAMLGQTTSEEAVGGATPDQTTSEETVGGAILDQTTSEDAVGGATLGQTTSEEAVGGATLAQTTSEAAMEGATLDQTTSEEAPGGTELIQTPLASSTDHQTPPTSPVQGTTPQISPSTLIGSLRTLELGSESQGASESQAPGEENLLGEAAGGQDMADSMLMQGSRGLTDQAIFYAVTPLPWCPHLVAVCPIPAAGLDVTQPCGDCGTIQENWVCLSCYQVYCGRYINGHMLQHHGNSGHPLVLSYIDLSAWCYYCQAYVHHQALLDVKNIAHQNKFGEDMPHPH
Kind of data set: HDAC inhibition assay (HTRF), HDAC6. The data set is classed as biochemical. Conditions: read-out: IC50 ± SD, HDAC6.
Description: as §3

Data set [7] deals with RPMI-8226 cells. Kind of data set: Apoptosis assay, Annexin V-FITC/PI flow cytometry. Type of data set: cell-based, human. Conditions: 1, 3 and 10 μM, 48 h. The source says: Annexin V-FITC and PI double-staining detection kits were used to determine apoptotic cells. […] Data results were obtained from three independent experiments.
For data set [8], the target named is HDAC3 (Homo sapiens, UniProt O15379). Kind of data set: HDAC inhibition assay (HTRF), HDAC3.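 Also: HTRF detection with streptavidin-XL665 and a Eu cryptate-labelled antibody against unmodified H3K9, two independent runs with duplicate wells at each concentration.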
Description: as §3
Data set [9] deals with Ac-histone H3 in RPMI-8226 cells. Kind of data set: Western blot of Ac-histone H3. Type of data set: cell-based, human. Conditions: 24 h; for Histone H3 acetylation level: 10 μM. The protocol: as §2
A short description of data set [10]: Pharmacokinetic study in male ICR mice. Type of data set: in vivo. To be noted: mouse, plasma. The protocol: Specific procedures were referred to the reported method. ICR mice (n = 6) were fasted for 12 h before administration and remained fasting for 2 h. The animal room environment was controlled (target conditions: temperature 18 to 29 °C, relative humidity 30 to 70%). Temperature and relative humidity were monitored daily. An electronic time-controlled lighting system was used to provide a 12 h light/12 h dark cycle. Compound 20 was administered at doses of 5 mg/kg (po) and 1 mg/kg (iv). The time points for blood sample collection were 0.25, 0.50, 1.00, 2.00, 4.00, 8.00, and 24 h post dose for the po-administrated group, and the time points were 0.05, 0.25, 0.75, 2.00, 4.00, 8.00, and 24 h for the iv group. For each point, 20 μL of plasma were transferred into a clean tube, 200 μL of MeOH/ACN (50/50, v/v) containing IS were added, and they were thoroughly vortexed by a vortex mixer for 1 min. The mixture was centrifuged at 15000 rpm for 5 min, and then 20 μL of supernatant was mixed with 20 μL of water for the analysis by LC-MS.

The conditions of data set [11]: ref [46],[47]; cited from earlier work.

HDAC3, sequence (O15379 whole entry): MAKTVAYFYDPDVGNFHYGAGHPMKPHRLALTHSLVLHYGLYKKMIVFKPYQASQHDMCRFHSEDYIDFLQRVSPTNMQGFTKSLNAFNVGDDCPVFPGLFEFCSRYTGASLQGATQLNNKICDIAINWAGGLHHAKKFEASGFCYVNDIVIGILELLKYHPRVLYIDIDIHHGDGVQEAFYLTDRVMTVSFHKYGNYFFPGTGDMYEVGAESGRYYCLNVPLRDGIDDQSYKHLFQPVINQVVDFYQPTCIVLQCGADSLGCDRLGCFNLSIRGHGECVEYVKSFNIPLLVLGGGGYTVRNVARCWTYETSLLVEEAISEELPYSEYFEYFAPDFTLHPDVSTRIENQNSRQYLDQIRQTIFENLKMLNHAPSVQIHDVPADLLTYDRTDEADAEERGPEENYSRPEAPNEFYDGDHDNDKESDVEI
HDAC3, sequence (Q9Y618 395-489 partner limits assumed): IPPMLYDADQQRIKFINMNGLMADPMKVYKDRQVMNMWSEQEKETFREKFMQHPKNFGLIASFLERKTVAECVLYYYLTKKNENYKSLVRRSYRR
T1 sequence (Q13547 whole entry): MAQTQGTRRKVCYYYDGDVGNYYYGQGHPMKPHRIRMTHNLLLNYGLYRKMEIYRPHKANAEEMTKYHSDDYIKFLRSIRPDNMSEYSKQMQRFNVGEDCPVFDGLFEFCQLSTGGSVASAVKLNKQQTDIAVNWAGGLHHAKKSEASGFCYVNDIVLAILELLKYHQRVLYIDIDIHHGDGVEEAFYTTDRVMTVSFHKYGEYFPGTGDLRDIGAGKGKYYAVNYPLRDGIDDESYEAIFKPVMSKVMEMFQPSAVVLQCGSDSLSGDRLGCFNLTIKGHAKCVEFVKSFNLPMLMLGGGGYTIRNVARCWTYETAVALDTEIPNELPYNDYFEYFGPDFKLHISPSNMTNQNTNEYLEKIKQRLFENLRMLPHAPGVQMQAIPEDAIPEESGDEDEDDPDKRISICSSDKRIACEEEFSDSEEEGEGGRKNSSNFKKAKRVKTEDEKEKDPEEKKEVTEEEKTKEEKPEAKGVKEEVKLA

Regarding `Nc1cc(F)ccc1NC(=O)c1ccc(CNC(=O)/C=C/c2cccnc2)cc1` [Chidamide, reference compound], the results for the IC50 in data set [1], in data set [2] and in data set [3] were 4.67 ± 0.53 µM, 0.5 ± 0.08 µM and 10.2 ± 1.02 µM, respectively. For the same molecule, the Ac-α-tubulin protein expression result in [4] was “no discernible effect”.
With `O=C(CCCCCCn1cccc1C(=O)C(F)(F)F)NO` [Compound 5c, N-hydroxy-7-(2-(2,2,2-trifluoroacetyl)-1H-pyrrol-1-yl)heptanamide], the IC50 in data set [5] came out at 0.0368 ± 0.00587 µM; in [6], 0.00422 ± 0.0001 µM; in [1], 12.3 ± 2.2 µM; in data set [2], 8.56 ± 1.47 µM; in data set [3], 11.9 ± 1.58 µM; in [8], 0.0266 ± 0.0019 µM. For the same molecule, in data set [7], the “Promotion of RPMI-8226 cell apoptosis” value is given as “promote RPMI-8226 cell apoptosis in a dose-dependent manner”.
For `CC(=O)c1cccn1Cc1ccc(/C=C/C(=O)NO)cc1` [Compound 14, (E)-3-(4-((2-acetyl-1H-pyrrol-1-yl)methyl)phenyl)-N-hydroxyacrylamide], the IC50 in data set [5] came out at 0.8 ± 0.0504 µM; in [6], 0.0337 ± 0.0148 µM; in [1], 8.63 ± 0.82 µM; in data set [2] it was 8.16 ± 1.96 µM; in [3], 8.85 ± 2.3 µM; in data set [8], 0.457 ± 0.173 µM. In addition, the “Promotion of RPMI-8226 cell apoptosis” value in data set [7] is “promote RPMI-8226 cell apoptosis in a dose-dependent manner”. The “Acetylated histone H3 compared to compound 5c” value in data set [9] (same concentration) is “induced more acetylated tubulin and acetylated histone H3”. In addition, the “Acetylated tubulin compared to compound 5c” value in data set [4] (same concentration) is recorded as “induced more acetylated tubulin”.
Regarding `CC(=O)c1cccn1Cc1cn(CCc2ccc(C(=O)Nc3ccccc3N)cc2)nn1` [Compound 19a, 4-(2-(4-((2-Acetyl-1H-pyrrol-1-yl)methyl)-1H-1,2,3-triazol-1-yl)ethyl)-N-(2-aminophenyl)benzamide], the IC50 is 1.1 ± 0.144 µM in [5]; greater than 10 µM in data set [6]; 13.2 ± 2.48 µM in data set [1]; 8.32 ± 0.37 µM in data set [2]; 10 ± 0.52 µM in data set [3]; 1.39 ± 0.373 µM in [8]. Moreover, in data set [7], the “Promotion of RPMI-8226 cell apoptosis” value is “promote RPMI-8226 cell apoptosis in a dose-dependent manner”. The “Histone H3 acetylation level” value in [9] is “increased histone H3 acetylation levels comparable to MS-275”. In data set [4], the Ac-α-tubulin protein expression result is listed as “no discernible effect”.
For `CC(=O)c1cccn1CCc1ccc(C(=O)Nc2ccccc2N)cc1` [Compound 20, 4-(2-(2-Acetyl-1H-pyrrol-1-yl)ethyl)-N-(2-aminophenyl)benzamide], in [5], the IC50 worked out at 0.441 ± 0.0782 µM. Further, the IC50 in data set [6] is greater than 10 µM. Besides, in [1], the IC50 was 9.08 ± 0.58 µM. Also, the IC50 in data set [2] amounted to 4.71 ± 0.24 µM. The IC50 in data set [3] worked out at 2.89 ± 0.43 µM. Also, the “Promotion of RPMI-8226 cell apoptosis” value in data set [7] is on record as “promote RPMI-8226 cell apoptosis in a dose-dependent manner”. Further, the “Histone H3 acetylation level” value in [9] is “increased histone H3 acetylation levels comparable to MS-275”. Besides, the Ac-α-tubulin protein expression result in [4] is “no discernible effect”. In addition, in [10] (iv, 1 mg/kg), the AUC(0-inf) – broadly, the area under the concentration-time curve extrapolated to infinity – worked out at 163 ± 3 ng·h/mL; the AUC(0-t) – broadly, exposure summed from dosing to a finite time, without extrapolation to infinity – came out at 163 ± 3 ng·h/mL; the MRT inf (usually a mean duration of stay, worked out from the concentration-time curve) amounted to 10.9 ± 0.36 min; the clearance (usually the rate of elimination divided by the concentration) was 102 ± 2 mL/min/kg. Besides, the half-life – broadly, the time in which the quantity being followed falls by half – in data set [10] (iv, 1 mg/kg) is 11.5 ± 0.72 min. In addition, the Vd in data set [10] (iv, 1 mg/kg, read-out: Vss) is 1.11 ± 0.052 L/kg. Also, in data set [10] (po, 5 mg/kg), the AUC(0-inf) worked out at 47.2 ± 26.6 ng·h/mL; the AUC(0-t) was found to be 40.7 ± 21.8 ng·h/mL; the Cmax (as a rule, the maximum level reached in the sampled fluid or tissue) stood at 48.3 ± 31.1 ng/mL; the MRT inf is 110 ± 25.2 min. In data set [10] (po, 5 mg/kg), the Tmax (as a rule, the time from dosing to the highest level) came out at 20 ± 8.64 min and the half-life was 93 ± 30.6 min. Also, the bioavailability (as a rule, dose-corrected exposure relative to a reference, in per cent) in data set [10] (po, 5 mg/kg, read-out: F (oral bioavailability)) was found to be 5%. For the same molecule, the IC50 in [8] was 1.08 ± 0.229 µM.
In the case of `Nc1ccccc1NC(=O)c1ccc(CNC(=O)OCc2cccnc2)cc1` [MS-275, entinostat, reference compound], in data set [4], the Ac-α-tubulin protein expression result is reported as “no discernible effect”.
With `O=C(CCCCCCC(=O)Nc1ccccc1)NO` [SAHA, vorinostat], in [11], the “F% (oral bioavailability)” value was 8.33%.
With `Cc1[nH]c2ccccc2c1CCNCc1ccc(/C=C/C(=O)NO)cc1` [panobinostat], the “F% (oral bioavailability)” value in [11] is on record as 4.62%.
